Assay results reported in paper PMC3057995, “Potent Anti-Tumor Effect Generated by a Novel Human Papillomavirus (HPV) Antagonist Peptide Reactivating the pRb/E2F Pathway” (PLoS ONE, 2011).

Columns and labels:
SiHa cells = assay: Western blot, SiHa; type: cell-based; conditions: 80 µM
Procedure: Western blotting was carried out as described previously, [50]. […] After another 48 h of treatment, the cells were lysed in lysis buffer (Beyotime Institute of Biotechnology, Jiangshu, China) containing PMSF (Sigma Chemical Co., St. Louis, MI, USA) for 30 min at 4°C. The lysate was then centrifuged for 20 min at 13,000 rpm and 4°C. The proteins were then separated through SDS-PAGE and transferred onto the PVDF membrane (Immobion®-P Transfer Membrane, Millipore Corp., Billerica, MA, USA). Membranes were blocked in a Tris-buffered saline with 0.1% Tween-20 (TBS-T) solution with 5% nonfat dry milk and incubated overnight with primary antibodies at 4°C. The immunoreactive signals were detected by HRP-conjugated secondary antibodies (KPL, Gaithersburg, MD, USA) followed by SuperSignal® West Pico Chemiluminescent Substrate (Thermo Scientific, Milford, MA, USA.). Anti-β-actin antibodies were used to control protein loading. For the in vivo studies, tumors were harvested, and the cell lysates were prepared and transferred to a clean Eppendorf tube and centrifuged for 30 min at 14,000 rpm. The supernate was probed by western blotting, as described above.

CaSki cells = assay: MTT cell viability assay, CaSki; type: cell-based; conditions: HPV16-positive, medium replaced daily, A540, mean ± SE, at least two independent runs in sextuplicate
Procedure: (§1) Cell viability was determined with an MTT assay. Briefly, the cells were seeded into 96-well plates at a density of 4–5×10^3 cells/well. The cells were allowed to recover for 24 h before the medium was replaced with DMEM supplemented with peptides at different concentrations. The solvent of the peptides was set as the control. The peptide-supplemented medium was replaced daily and the respective concentrations were maintained. The cells were subjected to an MTT cell proliferation assay at different time points. The plates were incubated at 37°C for 3 h with the addition of 20 µl/well MTT (5 mg/ml). Untransformed MTT in the solution was removed by aspiration. The formazan product was dissolved in DMSO, and plates were shaken vigorously at room temperature for 10–15 min to ensure complete solubilization. The optical density of the formazan solutions was measured by microplate reader at 540 nm.

COS7 = assay: MTT cell viability assay, Cos7; type: cell-based, African green monkey; conditions: Cos7, HPV-negative; data not shown
Excerpt: (§2) HPV16-positive SiHa and CaSki cervical carcinoma cells were supplied by China Center for Type Culture Collection (CCTCC). The following cell lines used in this project were from our laboratory: HPV18-positive HeLa cervical carcinoma cells, CNE nasopharyngeal carcinoma cells, HaCat human keratinocyte cells, COS7 (African green monkey SV40-transformed kidney fibroblast cell line), 293T (human kidney epithelial cells), and NIH/3T3 mouse embryonic fibroblast cells. All cells were maintained in a humidified atmosphere of 5% CO2, Dulbecco's modified Eagle's medium (DMEM, pH 7.2), supplemented with 10% fetal calf serum (FCS).
as §1, with “The formazan product was dissolved in DMSO, and plates were shaken vigorously at room temperature for 10–15 min to ensure complete solubilization.” left out

[1] = system: CNE nasopharyngeal carcinoma cells; assay: MTT cell viability assay, CNE; type: cell-based; conditions: HPV-negative, data not shown
Excerpt: as §2
as §1, with “The formazan product was dissolved in DMSO, and plates were shaken vigorously at room temperature for 10–15 min to ensure complete solubilization.” left out

SiHa tumor xenografts = assay: Subcutaneous tumor model in nude mice; type: in vivo, mouse (Balb/C-nu/nu); conditions: 400 and 800 µg/mouse i.v., 16 days, p<0.01
Procedure: A subcutaneous tumor model of nude mice was constructed. In brief, six-week-old female nude mice (18±2 g) were subcutaneously inoculated with 1.5×10^7 SiHa cells. When the tumor size reached about 100 mm^2, the mice were randomly divided into four groups with 5 mice each, namely, control group, low-dose group, middle-dose group, and high-dose group. […] The mice were raised for another 3 weeks. Tumor sizes were measured with a caliper every three days and tumor volume was calculated using “volume = length×width^2/2.” At the end of the experiment, all mice were sacrificed and the weights of the detached tumors were measured. Tumor growth inhibition ratio was represented as the tumor weight relative to the control, calculated using the formula, “Relative tumor weight (% of control) = average tumor weight of treatment group/average tumor weight of control group×100%.”

cyclins A, D1, and E1 = assay: qRT-PCR of tumor tissues; type: in vivo, mouse (Balb/C-nu/nu)
Procedure: Total RNA was extracted from the cultured cells using TRIzol reagent (Invitrogen, Carlsbad, CA,USA) according to the manufacturer's instructions. qRT-PCR was used to confirm the expression levels of mRNAs. Reverse transcription and qPCR were performed according to the protocol of Reverse Transcriptase System™ and SYBR® premix Ex Taq™ (Perfect Real Time) (TaKaRa, Dalian, P.R. China) on the ABI 7300 Real Time PCR System (Applied Biosystems, Foster City, CA, USA) supplied with analytical software. β-actin mRNA levels were used for normalization. Each sample was determined in triplicate. The results represent means ± SE from three experiment runs.

HeLa cells = assay: Clonogenic assay, HeLa; type: cell-based; conditions: 16 through 160 µM, 8 days, p>0.1
Procedure: Cells were seeded in DMEM at 1×10^3 cells/well density in 12-well plates and allowed to attach to the substrate overnight. Thereafter, cells were treated with 0 µM, 16 µM, 32 µM, 80 µM, and 160 µM peptide in DMEM, and the medium was changed every three days. The plates were observed daily for colony formation. After 8 (for HeLa cells) or 14 (for SiHa and CaSki cells) days of treatment, the cultures were washed three times with PBS and stained with crystal violet in ethanol for 15 min. The colonies were then counted and photographed with the Alphalmager® EP image acquisition system (Alpha Innotech, Santa Clara, CA, USA).

pRb = pRb half-life measurement (cycloheximide, Western blot); type: cell-based; conditions: SiHa, 80 µM Pep-7 24 h, then 50 µg/ml cycloheximide 0 to 12 h; three experiments
Procedure: Measurements of pRb half-life were carried out.
The cells were then treated with 50 µg/ml cycloheximide for 0 to 12 h. The cell lysates collected at different time points were subjected to Western blotting assay as above. Band intensity was used to determine the proteins half-life.

[2] = system: HaCat human keratinocyte cells; assay: MTT cell viability assay, HaCat; type: cell-based; conditions: HPV-negative, data not shown
Excerpt: as §2
as §1, with “The formazan product was dissolved in DMSO, and plates were shaken vigorously at room temperature for 10–15 min to ensure complete solubilization.” left out

Sequence: SACPKGLDWCGG (C&C bridged by disulfide bonds) (disulfide) [Pep-7]
- p107 and p130 protein levels (SiHa cells; SiHa and CaSki (Fig. 4D)): did not exhibit an effect
- HPV16E7 protein level (SiHa cells; SiHa, 48 h): reduced
- cyclins A, D1 and E1 protein expression (SiHa cells; SiHa, 48 h): significantly reduced
- pRb protein level (SiHa cells; SiHa, 48 h): increased
- cell proliferation (MTT) (CaSki cells): repressed significantly by Pep-7 in a dose- and time-dependent manner
- cell proliferation (MTT) (COS7): negligible effect
- cell proliferation (MTT) [1]: negligible effect
- anti-tumor efficacy (SiHa tumor xenografts): significant anti-tumor efficacy
- cyclins A, D1, and E1 RNA levels in tumor tissue (cyclins A, D1, and E1): reduced
- colony formation (HeLa cells): not influenced
- pRb half-life (pRb): significantly expanded
- cell proliferation (MTT) [2]: negligible effect
